What was measured:
aldose reductase = molecular target: T1, aldose reductase (Homo sapiens, UniProt P15121); experiment: inhibition of aldose reductase enzyme activity (procedure of S. Hayman et al. as modified by K. Sestanj et al.); type: biochemical; conditions: for inhibition at 10 µM: 10^-5 M, partially purified aldose reductase from human placenta; for aldose reductase inhibitor potency (in words): no concentration given
T1 construct: partially purified aldose reductase enzyme obtained from human placenta; from tissue; host or cells: human placenta
Experimental: (§1) The activity of the compounds of the present invention, as agents for the control of chronic diabetic complications, is determined by their ability to successfully pass one or more of the following standard biological or pharmacological tests, viz., (1) measuring their ability to inhibit the enzyme activity of isolated aldose reductase; (2) measuring their ability to reduce or inhibit sorbitol accumulation in the sciatic nerve of acutely streptozotocinized (i.e., diabetic) rats; (3) measuring their ability to reverse already-elevated sorbitol levels in the sciatic nerve and lens of chronic streptozotocin-induced diabetic rats; (4) measuring their ability to prevent or inhibit galactitol formation in the lens of acutely galactosemic rats, and (5) measuring their ability to delay cataract formation and reduce the severity of lens opacities in chronic galactosemic rats.
The following oxindole-1-alkanoic acid final products of Examples 1-12, respectively, were tested at a concentration level of 10^-5 M for their ability to reduce or inhibit aldose reductase enzyme activity via the procedure of S. Hayman et al., as described in the Journal of Biological Chemistry, Vol. 240, p. 877 (1965) and as modified by K. Sestanj et al. in U.S. Pat. No. 3,821,383. In every case, the substrate employed was partially purified aldose reductase enzyme obtained from human placenta.

[1] = tested on: sorbitol levels in diabetic rats; experiment: inhibition of sorbitol formation in diabetic rats, oral route; type: in vivo, rat; conditions: dose levels ranging from 0.75 mg./kg. to 20 mg./kg.
Source text: As previously indicated, the 3-substituted 2-oxo-indoline-1-alkanoic acid compounds of this invention are readily adapted to therapeutic use as aldose reductase inhibitors for the control of chronic diabetic complications, in view of their ability to reduce lens sorbitol levels in diabetic subjects to a statistically significant degree. […] Furthermore, the herein described compounds of this invention can be administered by either the oral or parenteral routes of administration. […]
as §1

SMILES | inhibition at 10 µM (aldose reductase) [%] | aldose reductase inhibitor potency (in words) (aldose reductase) | inhibition of the formation of sorbitol levels in diabetic rats (in words) [1]
O=C(O)CN1C(=O)C2(Cc3ccc(Cl)cc3C2)c2ccccc21 (stereo not drawn) [Example 9, 5(6)-chloro-1,2-dihydro-spiro-inden[2,3']indolin-2'-one-1'-acetic acid] | 71 |  | 
O=C(O)CN1C(=O)C(Cc2ccc(Cl)c(Cl)c2)c2ccc(O)cc21 (stereo not drawn) [Example 12, 3-(3,4-dichlorobenzyl)-6-hydroxy-2-oxo-indoline-1-acetic acid] | 79 | highly potent | 
O=C(O)CN1C(=O)C2(Cc3ccccc3C2)c2ccccc21 [Example 8, 1,2-dihydro-spiro-inden[2,3']indolin-2'-one-1'-acetic acid] | 66 |  | 
O=C(O)CN1C(=O)C(Cc2ccc(Cl)c(Cl)c2)c2cc(Cl)ccc21 (stereo not drawn) [Example 2, 5-chloro-3-(3,4-dichlorobenzyl)-2-oxo-indoline-1-acetic acid] | 88 | highly potent | 
O=C(O)CN1C(=O)C(Cc2ccc(Cl)c(Cl)c2)(Cc2ccc(Cl)c(Cl)c2)c2ccccc21 [Example 10, 3,3-di(3,4-dichlorobenzyl)-2-oxo-indoline-1-acetic acid] | 20 |  | 
COc1ccc2c(c1)N(CC(=O)O)C(=O)C2Cc1ccc(Cl)c(Cl)c1 (stereo not drawn) [Example 5, 3-(3,4-dichlorobenzyl)-6-methoxy-2-oxo-indoline-1-acetic acid] | 81 | highly potent | 
O=C(O)CN1C(=O)C(Cc2ccc(Cl)c(Cl)c2)c2ccc(F)cc21 (stereo not drawn) [Example 3, 3-(3,4-dichlorobenzyl)-6-fluoro-2-oxo-indoline-1-acetic acid] | 68 |  | 
O=C(O)CN1C(=O)C(Cc2ccc(Cl)c(Cl)c2)c2ccccc21 (stereo not drawn) [Example 1, 3-(3,4-dichlorobenzyl)-2-oxo-indoline-1-acetic acid] | 92 | highly potent | significantly high degree
CC(C(=O)O)N1C(=O)C(Cc2ccc(Cl)c(Cl)c2)c2ccccc21 (stereo not drawn) [Example 6, 3-(3,4-dichlorobenzyl)-2-oxo-indoline-1-(α-methyl)acetic acid] | 25 |  | 
CC(c1ccc(Cl)c(Cl)c1)C1C(=O)N(CC(=O)O)c2ccccc21 (stereo not drawn) [Example 7, 3-(3,4-dichloro-α-methylbenzyl)-2-oxo-indoline-1-acetic acid] | 94 | highly potent | 
COc1cc2c(cc1OC)N(CC(=O)O)C(=O)C2Cc1ccc(Cl)c(Cl)c1 (stereo not drawn) [Example 4, 3-(3,4-dichlorobenzyl)-5,6-dimethoxy-2-oxo-indoline-1-acetic acid] | 55 |  | 
CC(c1ccc(Cl)c(Cl)c1)C1(C)C(=O)N(CC(=O)O)c2ccccc21 (stereo not drawn) [Example 11, 3-(3,4-dichloro-α-methylbenzyl)-3-methyl-2-oxo-indoline-1-acetic acid] | 72 |  | 

From patent US5064852A, “Indolinone derivatives” (Pfizer Inc., priority 1990, dated 1991)
